Assay results as given in ChEMBL document CHEMBL1125762, “Synthesis and pharmacological evaluation of 1-(aminomethyl)-3,4-dihydro-5-hydroxy-1H-2-benzopyrans as dopamine D1 selective ligands” (J Med Chem, 1991).

Assays:
D(1) dopamine receptor = D(1) dopamine receptor (Carassius auratus, UniProt P35406); assay: In vitro inhibition of dopamine stimulated adenylate cyclase
D(2) dopamine receptor = D(2) dopamine receptor (Rattus norvegicus, UniProt P61169); assay: Binding affinity for dopamine receptor D2
D(1A) dopamine receptor = D(1A) dopamine receptor (Rattus norvegicus, UniProt P18901); assay: Binding affinity for dopamine receptor D1
[1] = molecular target: Beta-2 adrenergic receptor (Canis lupus familiaris, UniProt P54833); assay: Compound was tested in vitro for binding affinity for beta receptor
Rattus norvegicus [2] = assay: Compound was tested for the net contralateral rotations in rats 2 hr after administration of 0.1 uM/kg dopamine agonist; Activity expressed as net contralateral rotations / 2 hr; type: functional
[3] = molecular target: Sodium-dependent dopamine transporter (Homo sapiens, UniProt Q01959); assay: In vitro binding affinity for dopamine uptake site
Rattus norvegicus [4] = assay: Compound was tested for the net contralateral rotations in rats 2 hr after administration of 0.1 umol/kg, predosed with SCH-23390 (0.1 umol/kg sc), 40 min prior to injection of test compound; Activity expressed as net contralateral rotations / 2 hr
Rattus norvegicus [5] = assay: Compound was tested for the net contralateral rotations in rats 2 hr after administration of 1 uM/kg dopamine agonist; Activity expressed as net contralateral rotations / 2 hr; type: functional
[6] = molecular target: T1, 5-hydroxytryptamine receptor 1A (Rattus norvegicus, UniProt P19327); assay: Compound was tested in vitro for binding affinity for 5-hydroxytryptamine 1A receptor
T1 sequence (P19327 whole entry): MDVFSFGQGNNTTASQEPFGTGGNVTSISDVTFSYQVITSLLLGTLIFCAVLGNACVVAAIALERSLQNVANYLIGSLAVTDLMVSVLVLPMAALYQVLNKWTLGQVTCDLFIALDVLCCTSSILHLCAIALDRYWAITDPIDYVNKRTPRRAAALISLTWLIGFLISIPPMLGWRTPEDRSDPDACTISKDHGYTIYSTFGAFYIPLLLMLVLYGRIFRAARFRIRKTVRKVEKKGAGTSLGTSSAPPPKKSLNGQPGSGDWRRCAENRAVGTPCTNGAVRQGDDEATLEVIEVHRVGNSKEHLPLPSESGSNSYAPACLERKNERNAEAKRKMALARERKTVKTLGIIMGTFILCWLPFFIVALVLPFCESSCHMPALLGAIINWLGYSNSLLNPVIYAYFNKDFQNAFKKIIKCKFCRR

[7] = molecular target: T2, Adrenergic receptor alpha-2 (Homo sapiens, UniProt P08913+P18825+P18089); assay: Compound was tested in vitro for binding affinity for alpha-2 adrenergic receptor; type: protein assay
T2 sequence (P08913 whole entry): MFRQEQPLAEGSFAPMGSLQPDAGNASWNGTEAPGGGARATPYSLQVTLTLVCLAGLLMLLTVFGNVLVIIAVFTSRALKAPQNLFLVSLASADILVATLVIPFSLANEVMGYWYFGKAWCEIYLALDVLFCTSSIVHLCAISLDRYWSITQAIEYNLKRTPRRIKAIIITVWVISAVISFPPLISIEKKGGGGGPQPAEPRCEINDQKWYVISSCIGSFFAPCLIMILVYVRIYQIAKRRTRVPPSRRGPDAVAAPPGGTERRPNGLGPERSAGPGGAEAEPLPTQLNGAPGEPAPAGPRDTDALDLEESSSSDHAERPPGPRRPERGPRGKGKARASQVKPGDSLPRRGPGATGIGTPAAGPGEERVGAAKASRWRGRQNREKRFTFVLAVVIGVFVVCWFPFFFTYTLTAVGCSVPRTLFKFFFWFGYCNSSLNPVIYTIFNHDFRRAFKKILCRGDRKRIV
T2 sequence (P18825 whole entry): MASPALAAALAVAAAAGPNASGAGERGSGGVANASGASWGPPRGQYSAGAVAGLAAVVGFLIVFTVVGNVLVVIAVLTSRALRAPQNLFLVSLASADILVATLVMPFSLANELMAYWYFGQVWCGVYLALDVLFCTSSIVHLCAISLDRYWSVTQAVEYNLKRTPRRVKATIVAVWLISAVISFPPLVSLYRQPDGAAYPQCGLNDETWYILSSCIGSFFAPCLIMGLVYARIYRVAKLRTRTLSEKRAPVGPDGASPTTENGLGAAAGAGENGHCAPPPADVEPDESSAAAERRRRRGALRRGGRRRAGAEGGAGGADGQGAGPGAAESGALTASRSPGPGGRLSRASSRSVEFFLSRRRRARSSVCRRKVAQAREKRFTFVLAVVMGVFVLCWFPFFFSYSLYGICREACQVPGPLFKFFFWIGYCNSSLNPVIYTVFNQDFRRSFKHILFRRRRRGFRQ
T2 sequence (P18089 whole entry): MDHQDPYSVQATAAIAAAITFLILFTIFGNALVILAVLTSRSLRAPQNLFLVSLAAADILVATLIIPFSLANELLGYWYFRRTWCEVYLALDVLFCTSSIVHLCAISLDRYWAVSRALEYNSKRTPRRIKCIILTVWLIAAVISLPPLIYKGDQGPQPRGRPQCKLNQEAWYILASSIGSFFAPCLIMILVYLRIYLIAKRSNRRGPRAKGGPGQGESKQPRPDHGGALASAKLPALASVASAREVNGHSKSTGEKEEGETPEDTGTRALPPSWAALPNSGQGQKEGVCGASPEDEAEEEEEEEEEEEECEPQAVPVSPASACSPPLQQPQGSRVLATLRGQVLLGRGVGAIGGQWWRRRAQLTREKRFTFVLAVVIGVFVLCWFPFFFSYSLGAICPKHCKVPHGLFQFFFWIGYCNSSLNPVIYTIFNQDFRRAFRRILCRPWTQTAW

[8] = molecular target: T3, Adrenergic receptor alpha-1 (Homo sapiens, UniProt P35348+P25100+P35368); assay: Compound was tested in vitro for binding affinity for alpha-1 adrenergic receptor; type: protein assay
T3 sequence (P35348 whole entry): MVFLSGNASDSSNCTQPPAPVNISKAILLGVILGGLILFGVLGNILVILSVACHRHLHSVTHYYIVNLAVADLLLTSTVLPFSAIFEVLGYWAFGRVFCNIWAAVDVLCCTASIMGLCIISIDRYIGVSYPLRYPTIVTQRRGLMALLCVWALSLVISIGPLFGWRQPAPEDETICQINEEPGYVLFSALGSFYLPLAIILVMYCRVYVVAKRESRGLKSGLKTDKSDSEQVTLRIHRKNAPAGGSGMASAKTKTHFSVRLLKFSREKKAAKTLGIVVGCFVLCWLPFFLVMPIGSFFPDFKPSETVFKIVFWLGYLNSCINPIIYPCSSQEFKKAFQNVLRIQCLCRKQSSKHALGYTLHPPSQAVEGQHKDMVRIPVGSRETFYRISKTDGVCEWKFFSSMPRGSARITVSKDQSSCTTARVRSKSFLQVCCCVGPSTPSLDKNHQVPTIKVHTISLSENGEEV
T3 sequence (P25100 whole entry): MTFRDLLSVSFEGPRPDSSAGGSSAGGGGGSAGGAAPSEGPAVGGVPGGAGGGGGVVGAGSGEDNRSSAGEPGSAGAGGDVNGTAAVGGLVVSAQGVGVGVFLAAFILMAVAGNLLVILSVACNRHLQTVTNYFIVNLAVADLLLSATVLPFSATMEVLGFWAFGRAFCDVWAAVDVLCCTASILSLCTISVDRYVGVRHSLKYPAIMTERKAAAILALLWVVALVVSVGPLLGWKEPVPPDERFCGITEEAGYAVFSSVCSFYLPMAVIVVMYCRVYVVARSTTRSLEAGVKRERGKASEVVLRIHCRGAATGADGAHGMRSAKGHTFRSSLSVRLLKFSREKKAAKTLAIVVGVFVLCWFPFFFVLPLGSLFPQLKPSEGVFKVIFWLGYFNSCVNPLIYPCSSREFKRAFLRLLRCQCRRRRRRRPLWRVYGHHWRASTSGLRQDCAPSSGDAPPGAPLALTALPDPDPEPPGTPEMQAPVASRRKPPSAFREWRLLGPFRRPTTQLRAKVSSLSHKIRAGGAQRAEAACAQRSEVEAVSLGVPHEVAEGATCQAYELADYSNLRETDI
T3 sequence (P35368 whole entry): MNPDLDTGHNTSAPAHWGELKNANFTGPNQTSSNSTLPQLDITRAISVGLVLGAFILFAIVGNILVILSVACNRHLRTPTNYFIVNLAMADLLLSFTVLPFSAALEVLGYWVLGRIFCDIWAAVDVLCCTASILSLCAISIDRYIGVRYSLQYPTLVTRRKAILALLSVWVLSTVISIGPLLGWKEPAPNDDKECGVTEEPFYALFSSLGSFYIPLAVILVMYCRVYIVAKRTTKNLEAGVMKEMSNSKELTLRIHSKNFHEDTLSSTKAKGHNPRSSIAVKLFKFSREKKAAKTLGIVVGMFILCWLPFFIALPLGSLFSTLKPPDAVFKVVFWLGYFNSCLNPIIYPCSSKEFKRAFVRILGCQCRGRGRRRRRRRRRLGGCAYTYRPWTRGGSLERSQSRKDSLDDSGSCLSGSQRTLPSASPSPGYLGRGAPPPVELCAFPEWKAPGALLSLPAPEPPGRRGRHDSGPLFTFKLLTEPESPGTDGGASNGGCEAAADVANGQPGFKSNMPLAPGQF

[9] = molecular target: Serotonin 2 (5-HT2) receptor (Rattus norvegicus, UniProt P30994+P08909+P14842); assay: Compound was tested in vitro for binding affinity for 5-hydroxytryptamine 2 receptor; type: protein assay
Rattus norvegicus [10] = assay: Compound was tested for the net contralateral rotations in rats 2 hr after administration of 1.7 umol/kg, predosed with SCH-23390 (0.05 umol/kg sc), 40 min prior to injection of test compound; Activity expressed as net contralateral rotations / 2ho; type: functional
Rattus norvegicus [11] = assay: Compound was tested for the net contralateral rotations in rats, 2 hr after sc administration of 0.43 umol/kg dopamine agonist; Activity expressed as net contralateral rotations / 2 hr; type: functional
Rattus norvegicus [12] = assay: Compound was tested for the net contralateral rotations in rats 2 hr after sc administration of 1.7 umol/kg dopamine agonist; Activity expressed as net contralateral rotations / 2 hr; type: functional

Sequence of D(1) dopamine receptor (P35406 whole entry): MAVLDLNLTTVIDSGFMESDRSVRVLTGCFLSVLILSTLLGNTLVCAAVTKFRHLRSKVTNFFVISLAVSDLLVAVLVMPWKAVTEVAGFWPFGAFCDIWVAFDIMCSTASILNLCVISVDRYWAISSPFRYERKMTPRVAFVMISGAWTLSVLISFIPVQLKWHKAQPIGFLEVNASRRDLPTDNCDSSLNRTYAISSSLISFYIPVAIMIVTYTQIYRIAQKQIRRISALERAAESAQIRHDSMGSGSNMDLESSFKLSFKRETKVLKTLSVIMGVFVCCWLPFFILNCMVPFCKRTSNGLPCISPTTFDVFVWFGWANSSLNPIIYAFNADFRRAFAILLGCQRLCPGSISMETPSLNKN
Sequence of D(1A) dopamine receptor (P18901 whole entry): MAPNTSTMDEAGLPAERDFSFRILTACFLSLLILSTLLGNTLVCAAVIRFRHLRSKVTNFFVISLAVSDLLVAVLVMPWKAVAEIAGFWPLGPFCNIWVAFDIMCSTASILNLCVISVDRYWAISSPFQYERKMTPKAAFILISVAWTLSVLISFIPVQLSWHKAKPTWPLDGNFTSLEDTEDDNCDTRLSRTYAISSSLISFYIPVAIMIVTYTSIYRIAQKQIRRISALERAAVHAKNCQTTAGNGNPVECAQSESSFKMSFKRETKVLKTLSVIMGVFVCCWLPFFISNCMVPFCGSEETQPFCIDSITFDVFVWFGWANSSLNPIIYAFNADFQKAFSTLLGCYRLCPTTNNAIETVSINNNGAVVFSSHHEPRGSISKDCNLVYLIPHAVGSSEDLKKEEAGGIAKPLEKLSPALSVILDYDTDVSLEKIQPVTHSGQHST
Sequence of D(2) dopamine receptor (P61169 whole entry): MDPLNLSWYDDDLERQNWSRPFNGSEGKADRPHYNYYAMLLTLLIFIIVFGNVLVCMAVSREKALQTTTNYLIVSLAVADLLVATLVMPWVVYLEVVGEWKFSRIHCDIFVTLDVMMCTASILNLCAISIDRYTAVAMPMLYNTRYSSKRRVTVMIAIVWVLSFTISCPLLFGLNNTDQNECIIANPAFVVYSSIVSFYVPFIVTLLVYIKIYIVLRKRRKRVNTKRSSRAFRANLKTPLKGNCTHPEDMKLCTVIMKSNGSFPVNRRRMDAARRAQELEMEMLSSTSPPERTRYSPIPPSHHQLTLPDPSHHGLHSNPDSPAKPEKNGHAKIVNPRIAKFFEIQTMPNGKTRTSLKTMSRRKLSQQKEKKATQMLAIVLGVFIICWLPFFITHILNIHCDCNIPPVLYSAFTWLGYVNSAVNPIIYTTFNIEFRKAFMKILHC
Sequence of Sodium-dependent dopamine transporter (Q01959 whole entry): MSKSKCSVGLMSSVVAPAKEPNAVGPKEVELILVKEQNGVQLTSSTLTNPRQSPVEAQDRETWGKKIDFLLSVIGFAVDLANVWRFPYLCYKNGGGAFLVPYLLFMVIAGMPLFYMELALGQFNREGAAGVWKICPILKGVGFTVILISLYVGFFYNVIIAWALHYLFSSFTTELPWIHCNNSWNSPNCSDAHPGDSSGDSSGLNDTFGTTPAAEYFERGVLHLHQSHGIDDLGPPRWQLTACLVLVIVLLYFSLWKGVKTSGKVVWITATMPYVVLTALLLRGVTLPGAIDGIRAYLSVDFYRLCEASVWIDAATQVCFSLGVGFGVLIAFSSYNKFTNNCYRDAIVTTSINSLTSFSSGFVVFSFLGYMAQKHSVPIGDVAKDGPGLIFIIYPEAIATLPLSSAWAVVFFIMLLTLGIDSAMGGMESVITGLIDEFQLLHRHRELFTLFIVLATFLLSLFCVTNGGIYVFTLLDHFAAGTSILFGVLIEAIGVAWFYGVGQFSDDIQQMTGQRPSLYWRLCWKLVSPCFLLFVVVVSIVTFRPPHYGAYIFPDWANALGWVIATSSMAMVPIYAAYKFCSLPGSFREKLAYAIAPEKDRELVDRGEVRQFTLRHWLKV
Sequence of Beta-2 adrenergic receptor (P54833 whole entry): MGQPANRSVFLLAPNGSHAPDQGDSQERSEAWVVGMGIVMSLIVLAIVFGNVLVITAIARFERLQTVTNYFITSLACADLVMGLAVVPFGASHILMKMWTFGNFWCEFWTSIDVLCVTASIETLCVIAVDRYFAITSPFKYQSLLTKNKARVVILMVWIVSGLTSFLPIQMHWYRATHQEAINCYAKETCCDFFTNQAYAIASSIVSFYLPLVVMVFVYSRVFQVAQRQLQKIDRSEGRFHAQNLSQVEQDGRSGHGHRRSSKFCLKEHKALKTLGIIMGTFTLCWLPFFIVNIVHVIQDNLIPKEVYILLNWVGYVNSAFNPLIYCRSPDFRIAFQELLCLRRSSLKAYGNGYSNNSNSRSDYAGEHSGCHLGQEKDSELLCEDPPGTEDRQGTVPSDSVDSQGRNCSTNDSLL

Compound `COc1ccc2c(c1O)C[C@@H](c1ccccc1)O[C@H]2CN` has a Ki (D(1) dopamine receptor) of 0.247 µM, a Ki (D(2) dopamine receptor) of over 30 µM and a Ki (D(1A) dopamine receptor) of 0.166 µM.

`CNC[C@@H]1O[C@H](C2CCCCC2)Cc2c1ccc(C)c2O` was tested, and the Ki (D(1) dopamine receptor) was 0.121 µM, the Ki (D(2) dopamine receptor) was 4.61 µM and the Ki (D(1A) dopamine receptor) was 0.263 µM.

`CCCNC[C@@H]1O[C@H](C2CCCCC2)Cc2c1ccc(C)c2O` gave a Ki (D(1) dopamine receptor) of 0.454 µM, a Ki (D(2) dopamine receptor) of 2.63 µM and a Ki (D(1A) dopamine receptor) of 2.82 µM.

`Br.Cc1ccc2c(c1O)C[C@@H](C1CCCCC1)O[C@H]2CN` showed a Ki [1] of 19.2 µM, a Ki (D(1) dopamine receptor) of 0.1 µM and an Activity (Rattus norvegicus [2]) of 227. The Ki [3] was 1.87 µM, the Ki (D(2) dopamine receptor) was over 30 µM and the Activity (Rattus norvegicus [4]) was 4. It also gave an Activity (Rattus norvegicus [5]) of 751, a Ki [6] of 0.0541 µM and a Ki [7] of 0.358 µM. It also gave a Ki (D(1A) dopamine receptor) of 0.0864 µM, a Ki [8] of over 30 µM and a Ki [9] of 0.242 µM.

`NC[C@@H]1O[C@H](C2CCCCC2)Cc2c1ccc(O)c2O` showed a Ki (D(2) dopamine receptor) of 1.12 µM and a Ki (D(1A) dopamine receptor) of 0.0054 µM.

For `NC[C@@H]1O[C@H](c2ccccc2)Cc2c(O)cccc21`, the Ki (D(1) dopamine receptor) was 0.0525 µM, the Ki (D(2) dopamine receptor) was over 30 µM and the Ki (D(1A) dopamine receptor) was 0.103 µM.

`Cl.NC[C@@H]1O[C@H](c2ccccc2)Cc2c1ccc(Br)c2O` gave a Ki [1] of 18.4 µM, a Ki (D(1) dopamine receptor) of 0.0324 µM and an Activity (Rattus norvegicus [2]) of 1007. The Ki [3] was over 30 µM, the Ki (D(2) dopamine receptor) was 0.569 µM and the Activity (Rattus norvegicus [4]) was 151. It also gave an Activity (Rattus norvegicus [5]) of 748, a Ki [6] of 0.312 µM and a Ki [7] of 0.36 µM. The Ki (D(1A) dopamine receptor) was 0.0051 µM, the Ki [8] was 1.82 µM and the Ki [9] was 6.36 µM.

Work on `Oc1cc2c(cc1O)[C@@H](c1ccccc1)CNCC2` [(R)-SKF-38393] yielded an Activity (Rattus norvegicus [10]) of 47, an Activity (Rattus norvegicus [11]) of 241 and an Activity (Rattus norvegicus [12]) of 608.

With `Cc1ccc2c(c1O)C[C@@H](C1CCCCC1)O[C@H]2CN(C)C` the Ki (D(1) dopamine receptor) was 0.125 µM, the Ki (D(2) dopamine receptor) was 18 µM and the Ki (D(1A) dopamine receptor) was 0.284 µM.

`NC[C@H]1O[C@H](c2ccccc2)Cc2c1ccc(Br)c2O` gave a Ki (D(1) dopamine receptor) of 0.197 µM, a Ki (D(2) dopamine receptor) of 1.96 µM and a Ki (D(1A) dopamine receptor) of 0.366 µM.
